Measured values reported in ChEMBL document CHEMBL3046524, “Synthesis and biological evaluation of N 1,N 2-bis-[4-(t-amino)-2-butynyl]phthalamides as oxotremorine and acetylcholine antagonists” (Med Chem Res, 2013).
Calls of active or inactive are those of the source. The calls are words filed in the database; no cut-off is given here.

Columns and labels:
Ileum [1] = assay: Ionotropic activity in Cavia porcellus (guinea pig) ileum assessed as inhibition of acetylcholine-induced contraction after 15 min by physiographic analysis; assay type: functional, tissue-based; conditions: 0.25 h, read-out: pA2 (converted)
Mus musculus [2] = assay: Antitremor activity in ip dosed Mus musculus (mouse) assessed as concentration required to inhibit oxotremorine-induced tremor effect administered 15 to 20 min prior to oxotremorine challenge measured 15 to 20 min post oxotremorine challenge; assay type: functional
Ileum [3] = assay: Ionotropic activity in Cavia porcellus (guinea pig) ileum assessed as concentration required to inhibit acetylcholine-induced contraction after 15 min by physiographic analysis; assay type: functional
Mus musculus [4] = assay: Antitremor activity in ip dosed Mus musculus (mouse) assessed as inhibition of oxotremorine-induced tremor effect administered 15 to 20 min prior to oxotremorine challenge measured 15 to 20 min post oxotremorine challenge; assay type: functional, organism-based

| SMILES | Kb (Ileum [1]) | INH (Mus musculus [2]) | INH (Ileum [3]) | inhibition (Mus musculus [4]) |
| --- | --- | --- | --- | --- |
| CC1CCCCN1CC#CCN1C(=O)c2ccccc2C1=O (stereo not given) | 1260 nM | 9.6 µmol/kg | 1.2 ×10⁻⁶ mol/L | – |
| O=C(NCC#CCN1CCCCCCC1)c1ccccc1C(=O)NCC#CCN1CCCCCCC1 | 1260 nM | – | 5 ×10⁻⁶ mol/L | – |
| CC1CCCC(C)N1CC#CCNC(=O)c1ccccc1C(=O)NCC#CCN1C(C)CCCC1C (stereo not given) | 1580 nM | – | 3 ×10⁻⁶ mol/L | inactive |
| CC1CCCCN1CC#CCNC(=O)c1ccccc1C(=O)NCC#CCN1CCCCC1C (stereo not given) | 2000 nM | – | 1.2 ×10⁻⁶ mol/L | – |
| O=C1c2ccccc2C(=O)N1CC#CCN1CCCCC1 | 1580 nM | 7.6 µmol/kg | 1.6 ×10⁻⁶ mol/L | – |
| O=C(NCC#CCN1CCCCC1)c1ccccc1C(=O)NCC#CCN1CCCCC1 | 2510 nM | 8 µmol/kg | 1.6 ×10⁻⁶ mol/L | – |
| CN1[C@@H]2CC[C@H]1C[C@@H](OC(=O)C(CO)c1ccccc1)C2 (stereo not given in full) [ATROPINE] | 3.98 nM | 2.8 µmol/kg | 3.7 ×10⁻⁹ mol/L | – |
| CC1CCCC(C)N1CC#CCN1C(=O)c2ccccc2C1=O (stereo not given) | 2000 nM | – | 2 ×10⁻⁶ mol/L | inactive |
| O=C1c2ccccc2C(=O)N1CC#CCN1CCCCCCC1 | 794 nM | 2.4 µmol/kg | 8 ×10⁻⁷ mol/L | – |
